Laboratory results published in patent US20160031935A1, “SMALL MOLECULE MODULATORS OF PCSK9 AND METHODS OF USE THEREOF” (ADAERATA, LIMITED PARTNERSHIP, priority 2013, published 2016).

Experiments:
WT PCSK9(+V5) = biological target: T1, WT PCSK9(+V5) (Homo sapiens, UniProt Q8NBP7); assay: PCSK9 secretion assay: PCSK9 in media and cells by ELISA (media/cell ratio); assay type: cell-based; details: 10 μM; HepG2 cells stably expressing WT PCSK9(+V5), 24 h
T1 construct: expressed in transfected cells
Description: In 12-well plates (Greiner BioOne™), HepG2 cells stably expressing PCSK9(+V5) were seeded at a density of 1×10^6/well in complete media and incubated for 20 hours, at 37° C. Cells were rinsed once with 2 ml/well of D-PBS (+Calcium, +Magnesium) (Wisent) followed by addition of 0.5 ml/well incubation media (+0.07% BSA) containing the inhibitory compounds at various concentrations (11, 33, 100 μM) or DMSO control (0.4% final) and overnight (24 hours) incubation. 24 hours-conditioned media was collected, centrifuged at 130×g for 5 minutes to remove cell debris, and the supernatant removed for PCSK9 quantification by ELISA (100 μl of 1:30 dilution). Cells were washed once with ice-cold D-PBS (+Calcium, +Magnesium) (Wisent), then lysed with 250 ul/well of radioimmunoprecipitation assay buffer (RIPA) (50 mM Tris-HCl, pH 7.8, 150 mM NaCl, 1% Nonident P-40, 0.5% sodium deoxycholate, 0.1% SDS) containing a mixture of protease inhibitors (Roche Applied Science) for 30 min on ice, and pelleted at 11,300×g for 5 minutes. Supernatant was removed for cellular PCSK9 quantification by ELISA (100 μl of 1:20 dilution) and total protein determination by the Bio-Rad™ DC Protein assay (Bio-Rad) (4 μl cell lysate in duplicate) (Dubuc G, Tremblay M, Pare G, Jacques H, Hamelin J, Benjannet S, Boulet L, Genest J, Bernier L, Seidah N G, Davignon J. 2010. A new method for measurement of total plasma PCSK9: clinical applications. J Lipid Res. 51:140-149). The ratio of PCSK9 concentration of media (M) over cells (C) was determined and compounds which decreased M/C by >30% were considered active.
HepG2 cells stably expressing WT PCSK9(+V5) were incubated overnight (24 hours) in the absence (DMSO) or presence of 10 μM, 100 μM or increasing concentrations (11, 33, 100 μM) of a tested compound. 24 hours-conditioned media was collected, centrifuged, and the supernatant removed for PCSK9 quantification by ELISA (100 μl of 1:30 dilution). Cells were lysed with 250 ul/well of radioimmunoprecipitation assay buffer (RIPA) (50 mM Tris-HCl, pH 7.8, 150 mM NaCl, 1% Nonident P-40, 0.5% sodium deoxycholate, 0.1% SDS) containing a mixture of protease inhibitors (Roche Applied Science), and pelleted at 11,300×g for 5 minutes. Supernatant was removed for cellular PCSK9 quantification by ELISA (100 μl of 1:20 dilution) and total protein determination by the Bio-Rad DC Protein assay (Bio-Rad) (Dubuc G, Tremblay M, Pare G, Jacques H, Hamelin J, Benjannet S, Boulet L, Genest J, Bernier L, Seidah N G, Davignon J. 2010. A new method for measurement of total plasma PCSK9: clinical applications. J Lipid Res. 51:140-149). Over 165 compounds were subjected to a first screen at 100 μM by PCSK9 secretion assay.

[1] = tested on: cell surface LDLR activity; assay: Dil-LDL uptake assay in HepG2 naïve cells; assay type: cell-based, human; details: for activity at 10 µM: Homo sapiens, 24 h, HepG2 cells, read-out: Dil-LDL uptake (% DMSO Cnt)
Description: HepG2 naive cells and HEK293 naive cells were plated in 96-well plates (CellBind black plate with clear bottom (Corning; Cat #3340)) at a density of 25,000 cells/well, in complete media (DMEM high glucose (+sodium pyruvate for HepG2) (Wisent)+10% FBS). After 20 hours, cells were washed for 30 min with serum free DMEM media (100 μl/well), the wash media was removed and replaced with 100 μl/well of incubation media (DMEM high glucose (+sodium pyruvate for HepG2) (Wisent)+0.07% BSA (Sigma-Aldrich)) containing compound at various concentrations ([…]) or DMSO control (0.4% final). Each condition was prepared in triplicates. After 6 hours incubation at 37° C., Dil-LDL (Biomedical Technologies (Cat #BT-904)) was added to the cell media (5 μl) at 5 μg/ml final concentration, and cells returned to tissue culture incubator for another 18 hours (a total of 24 hours incubation with the compounds). After 2 washes (200 μl/well) with ice-cold D-PBS (Wisent) and aspiration of the final wash, plates were scanned (bottom read) on a SpectraMax GeminiEM™ plate reader (Molecular Devices). For each well, raw Dil-LDL uptake was measured as the average fluorescence intensity (RFU) (ex: 520 nm/em: 575 nm, cutoff: 550 nm) of 9 readings in 3 different points in the well. Dil-LDL uptake in each well was corrected for total number of cells by performing a CyQuant™ cell assay (Invitrogen; Cat #C7026). Namely, after recording the Dil fluorescence, the plate was frozen overnight at −80° C. The next day, the plates were thawed at room temperature, the cells lysed according to the manufacturer's protocol, and the number of cells/well was determined by measuring the fluorescence (RFU) of the CyQuant green fluorescent dye bound to the cellular nucleic acids (ex: 485 nm/em: 538 nm, cutoff: 515 nm). For each condition, Dil-RFU was divided by CyQuant-RFU. Corrected dil-LDL uptake is reported as % DMSO control and was obtained from triplicate wells.
The PCSK9 inhibitory compounds were also characterized using a Dil-LDL fluorescent uptake assay as described in Poirier et al., J. Biol. Chem. 284: 28856-28864, 2009. The method entails the fluorescence measurement of the Dil-LDL cellular incorporation via LDLR internalization (a measurement of cell surface LDLR activity) in human hepatocyte derived HuH7 or HepG2 cell lines, or human embryonic HEK293 cells, in the presence or absence of compounds.
HepG2 naïve cells and HEK293 naïve cells were plated in 96-well plates (CellBind™ black plate with clear bottom (Corning; Cat #3340)). At 20 h post-seeding, cells were incubated in the absence (DMSO or negative control) or in the presence of different concentrations of compounds. Each condition was prepared in triplicates. After 6 hours incubation, Dil-LDL (Biomedical Technologies (Cat #BT-904)) was added to the cell media, and cells returned to tissue culture incubator for another 18 hours. Plates were scanned (bottom read) on a SpectraMax GeminiEM™ plate reader (Molecular Devices). For each well, raw Dil-LDL uptake was measured as the average fluorescence intensity (RFU) (ex: 520 nm/em: 575 nm, cutoff: 550 nm) of 9 readings in 3 different points in the well. Dil-LDL uptake in each well was corrected for total number of cells by performing a CyQuant™ cell assay (Invitrogen, Cat #C7026) according to the manufacturer's instructions. Corrected Dil-LDL uptake is reported as a % of DMSO control and was obtained from triplicate wells.

T1 sequence (Q8NBP7 153-692): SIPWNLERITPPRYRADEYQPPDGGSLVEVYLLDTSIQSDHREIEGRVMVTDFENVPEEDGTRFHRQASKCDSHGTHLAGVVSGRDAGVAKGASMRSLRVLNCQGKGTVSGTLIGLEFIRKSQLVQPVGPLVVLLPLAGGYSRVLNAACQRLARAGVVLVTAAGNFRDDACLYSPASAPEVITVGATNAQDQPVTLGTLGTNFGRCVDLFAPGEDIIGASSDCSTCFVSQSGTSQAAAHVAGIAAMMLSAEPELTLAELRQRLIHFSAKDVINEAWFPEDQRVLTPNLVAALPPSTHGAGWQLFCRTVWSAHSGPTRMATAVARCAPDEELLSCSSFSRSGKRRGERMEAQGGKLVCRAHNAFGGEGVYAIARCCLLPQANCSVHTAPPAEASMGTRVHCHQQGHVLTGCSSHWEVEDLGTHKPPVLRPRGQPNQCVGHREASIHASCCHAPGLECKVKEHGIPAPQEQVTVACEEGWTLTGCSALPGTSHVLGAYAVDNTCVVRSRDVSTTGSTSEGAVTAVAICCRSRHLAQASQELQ

CCCCCCCCCC(=O)N[C@H](C(=O)N[C@@H](Cc1ccccc1)C(=O)N[C@H](C(=O)NC(CCC(N)=O)C(O)C(F)(F)F)C(C)C)C(C)C (stereo partly drawn) [Example 58, N-((2S)-1-(((2S)-1-(((2S)-1-((6-amino-1,1,1-trifluoro-2-hydroxy-6-oxohexan-3-yl)amino)-3-methyl-1-oxobutan-2-yl)amino)-1-oxo-3-phenylpropan-2-yl)amino)-3-methyl-1-oxobutan-2-yl)decanamide]
Secretion Inhibition (% Activity) (WT PCSK9(+V5)): 81%
activity at 10 µM [1]: 261 ± 48%

CCCCCCCCCC(=O)N[C@H](C(=O)N[C@@H](Cc1ccccc1)C(=O)N[C@@H](Cc1ccccc1)C(=O)NC(CCC(N)=O)C(O)C(F)(F)F)C(C)C (stereo partly drawn) [Example 59, N-((2S)-1-(((2S)-1-(((2S)-1-((6-Amino-1,1,1-trifluoro-2-hydroxy-6-oxohexan-3-yl)amino)-1-oxo-3-phenylpropan-2-yl)amino)-1-oxo-3-phenylpropan-2-yl)amino)-3-methyl-1-oxobutan-2-yl)decanamide]
Secretion Inhibition (% Activity) (WT PCSK9(+V5)): 82%
activity at 10 µM [1]: 253 ± 75%

CCCCCCCCCC(=O)N[C@H](C(=O)N[C@@H](Cc1ccccc1)C(=O)N[C@H](C)C(=O)N[C@@H](CCC(N)=O)C(O)C(F)(F)F)C(C)C (single isomer, unassigned) [Example 60]
Secretion Inhibition (% Activity) (WT PCSK9(+V5)): 73%
activity at 10 µM [1]: 224 ± 43%

CC(C)[C@H](NC(=O)c1ccc(-c2ccccc2)cc1)C(=O)N[C@H](Cc1ccccc1)C(=O)N[C@@H](C)C(=O)NC(CCC(N)=O)C(O)C(F)(F)F (stereo partly drawn) [Example 70, N-((2S)-1-(((2R)-1-(((2S)-1-((6-Amino-1,1,1-trifluoro-2-hydroxy-6-oxohexan-3-yl)amino)-1-oxopropan-2-yl)amino)-1-oxo-3-phenylpropan-2-yl)amino)-3-methyl-1-oxobutan-2-yl)-[1,1′-biphenyl]-4-carboxamide]
Secretion Inhibition (% Activity) (WT PCSK9(+V5)): 74%
activity at 10 µM [1]: 224 ± 47%

CC(C)[C@H](NC(=O)c1ccc(-c2ccccc2)cc1)C(=O)N[C@@H](Cc1ccccc1)C(=O)NC1(C(=O)N[C@@H](CCC(N)=O)C(O)C(F)(F)F)CCC1 (single isomer, unassigned) [Example 66]
Secretion Inhibition (% Activity) (WT PCSK9(+V5)): 92%
activity at 10 µM [1]: 237 ± 59%

CC(C)[C@H](NC(=O)c1ccc(-c2ccccc2)cc1)C(=O)N[C@@H](Cc1ccccc1)C(=O)N[C@@H](C)C(=O)NC(CCC(N)=O)C(O)C(F)(F)F (stereo partly drawn) [Example 24, N-((2S)-1-(((2S)-1-(((2S)-1-((6-Amino-1,1,1-trifluoro-2-hydroxy-6-oxohexan-3-yl)amino)-1-oxopropan-2-yl)amino)-1-oxo-3-phenylpropan-2-yl)amino)-3-methyl-1-oxobutan-2-yl)-[1,1′-biphenyl]-4-carboxamide]
Secretion Inhibition (% Activity) (WT PCSK9(+V5)): 88%
Dil-LDL uptake (FIG. 5A, in words) ([1]; 33.3 μM, HepG2 naïve cells): increase in the Dil-LDL uptake
activity at 10 µM [1]: 224 ± 33%

CC(C)[C@H](NC(=O)c1ccc(C2(C(F)(F)F)N=N2)cc1)C(=O)N[C@@H](Cc1ccccc1)C(=O)N[C@@H](C)C(=O)NC(CCC(N)=O)C(O)C(F)(F)F (stereo partly drawn) [Example 29, N-((2S)-1-(((2S)-1-(((2S)-1-((6-Amino-1,1,1-trifluoro-2-hydroxy-6-oxohexan-3-yl)amino)-1-oxopropan-2-yl)amino)-1-oxo-3-phenylpropan-2-yl)amino)-3-methyl-1-oxobutan-2-yl)-4-(3-(trifluoromethyl)-3H-diazirin-3-yl)benzamide]
Secretion Inhibition (% Activity) (WT PCSK9(+V5)): 83%
activity at 10 µM [1]: 207 ± 21%

CSCC[C@H](NC(=O)c1ccc(-c2ccccc2)cc1)C(=O)N[C@@H](Cc1ccccc1)C(=O)N[C@@H](C)C(=O)NC(CCC(N)=O)C(O)C(F)(F)F (stereo partly drawn) [Example 75, N-((5S,8S,11S)-17-amino-8-benzyl-11-methyl-6,9,12,17-tetraoxo-14-(2,2,2-trifluoro-1-hydroxyethyl)-2-thia-7,10,13-triazaheptadecan-5-yl)-[1,1′-biphenyl]-4-carboxamide]
Secretion Inhibition (% Activity) (WT PCSK9(+V5)): 100%
activity at 10 µM [1]: 172 ± 48%

CC(C)[C@H](NC(=O)c1ccc(-c2ccc(F)cc2)cc1)C(=O)N[C@@H](Cc1ccccc1)C(=O)N[C@@H](C)C(=O)NC(CCC(N)=O)C(O)C(F)(F)F (stereo partly drawn) [Example 52, N-((2S)-1-(((2S)-1-(((2S)-1-((6-Amino-1,1,1-trifluoro-2-hydroxy-6-oxohexan-3-yl)amino)-1-oxopropan-2-yl)amino)-1-oxo-3-phenylpropan-2-yl)amino)-3-methyl-1-oxobutan-2-yl)-4′-fluoro-[1,1′-biphenyl]-4-carboxamide]
Secretion Inhibition (% Activity) (WT PCSK9(+V5)): 79%
activity at 10 µM [1]: 254 ± 71%
